Measured values reported in patent US20230009323A1, “COMPOUNDS AND METHODS FOR THE TREATMENT OF CRYPTOSPORIDIOSIS” (The Broad Institute, Inc., priority 2019, published 2023).
Entries after “also recorded” stand apart in the source; their conditions may differ.

How the values were obtained:
[1] = tested on: C. parvum (Iowa) Sterling; assay: C. parvum (Iowa) Sterling growth in HCT-8 cells; format: cell-based; details: Cryptosporidium parvum
Method: (§1) Studies using farm C. parvum isolates and the C. hominis TU502 isolate were performed by Calibr at Scripps Research (La Jolla, Calif.) in 1,536-well plates using a slightly modified immunofluorescence assay as described in Love, M. S. et al. PLoS neglected tropical diseases 11, e0005373, doi:10.1371/journal.pntd.0005373 (2017), hereby incorporated by reference in its entirety. HCT-8 cell culture medium was replaced with RPMI 1640 medium supplemented with 2% heat-inactivated horse serum, 100 U·mL^−1 penicillin, and […] 24 h prior to infection with the indicated isolate. The C. parvum Iowa isolate was included as a reference in all experiments. Imaging was performed using a Cellnsight CX5 High Content screening platform (Thermo Scientific) with a 10× objective and acquisition of one microscopic field per well. Images were processed using HCS Studio Scan software, and the selected-object count (HCT-8 cells) and spot count (parasitophorous vacuoles) were analyzed in Genedata Screener (version 13.0; Standard). Dose-response curves and EC50 values were calculated using the Smart Fit function of Genedata Analyzer.

[2] = tested on: C. parvum (Field Isolate) WSU; assay: C. parvum field isolate (WSU) growth in HCT-8 cells; format: cell-based; details: Cryptosporidium parvum
Method: as §1

C. parvum [3] = assay: Asexual growth vs DMC1 sexual differentiation assay; format: cell-based, Cryptosporidium parvum
Method: The effect on expression of the meiotic recombination protein DMC1 was previously identified as a sexual stage-specific marker for C. parvum. The potency of Compound 11 for inhibiting asexual development during the first 48 h of infection was compared to its potency at inhibiting DMC1 expression when compound was added after 48 h of culture (the approximate timing of sexual differentiation). In addition to staining for parasites with FITC-Vicia villosa lectin and DNA with Hoechst as above, samples were stained for the presence of DMC1 with an anti-C. parvum DMC1 mouse monoclonal antibody (clone 1H10G7 (IgG2b, kappa) used as undiluted culture medium with a secondary Alexa Fluor 568 goat anti-mouse IgG antibody (Invitrogen) at 1:500 dilution. Cultures were performed in 384-well plates with the addition of amphotericin B (Sigma, catalog) to the culture medium at 0.1 to 0.5 μg·mL^−1 for these assays. Images were acquired as above, and analyzed using NIH ImageJ software.

C. parvum [4] = assay: NOD SCID gamma mouse model of established cryptosporidiosis, fecal oocyst shedding by qPCR; format: in vivo, NOD SCID gamma mice
From the text: FIG. 4A is a schematic of NOD SCID gamma (NSG) mouse model of established intestinal cryptosporidiosis. Intestinal C. parvum infection was established by oral gavage of ˜10^5 oocysts either 7 days (FIGS. 4B and C) or 14 days (FIG. 4D) prior to oral treatment with bicyclic azetidines, vehicle, or paromomycin (positive control). All data are the mean and SEM (n=4 mice per experimental group) of parasite shedding per mg of feces measured by qPCR with results for individual mice shown as superimposed data points. Data points for which no parasite DNA was detected are shown at the qPCR assay limit of detection (0.1 oocysts per mg feces).
NOD scid gamma mice (NOD.Cg-Prkdcscid Il2rgtmlWjl/Szj; Jackson Laboratory, Bar Harbor, Me.) (NSG) were used to model established Cryptosporidium infection. All NSG mouse studies were performed in compliance with animal care guidelines and with approval by the University of Vermont Institutional Animal Care and Use Committee. Mice were acquired at three to four weeks of age, and acclimatized for one week prior to infection by oral gavage of ˜10^5 C. parvum Iowa isolate (Bunch Grass Farms) oocysts. They were then treated at the specified times and dosages with each compound dissolved in 0.5% hydroxypropylmethyl cellulose, 0.5% Tween 80 (v/v) plus 5% DMSO.
This cryptosporidiosis infection model used 3-4 week old, freshly weaned, NOD SCID gamma mice orally infected with C. parvum oocysts (˜1×10^5). The infection was monitored by qPCR of feces with primers specific for C. parvum and data are shown as number of oocysts milligram^−1 of feces. Six days following infection and upon confirmation of parasite shedding by qPCR, the three compounds, negative and positive control were orally administered at 50 mg·kg^−1 (body weight) every 24 h for 4 days. (FIGS. 4A-D). […] We then performed a dose-ranging study with Compound 11 using the same immunocompromised mouse model and dosing regimens of 5, 20 and 40 mg·kg^−1 every 24 h for 4 days or 10 mg·kg^−1 every 24 h for 7 days. Mice were monitored for an additional 14 days for relapse of infection.

C. parvum [5] = assay: Host cell invasion assay; format: cell-based, Cryptosporidium parvum
[6] = tested on: C. parvum WT transgenic PheRS (wtL482); assay: In vitro drug susceptibility in HCT-8 cells, luminescence, wild type transgenic; format: cell-based; details: Cryptosporidium parvum, HCT-8, 48 h, read-out: EC50, wild type transgenic
Method: (§2) The in vitro drug susceptibility assay using transgenic parasites expressing Nluc was performed as described in Vinyak et al. Briefly, host intestinal epithelial adenocarcinoma (HCT-8) cells grown in 96-well plates were infected with purified transgenic Nluc-expressing oocysts (1,000 oocysts per well) and incubated with different concentrations of Compound 11 for 48 hours. Culture supernatant was discarded from the wells after 48 hours, and 200 μl of NanoGlo lysis buffer containing 1:50 of NanoGlo substrate (Promega) was added to the wells. Lysates were transferred to white 96-well plates and luminescence was measured on a Glomax luminescence reader (Promega). EC50 values were calculated in GraphPad Prism software v7.
(§3) Oocysts from the mutant (mut482V) and wild type (wtL482) transgenic lines were purified as well as the parent strain (Bunchgrass) used to generate the transgenics. Sporozoites were excised from these oocysts and used to infect 96 well format HCT-8 cultures to perform in vitro drug susceptibility assays. Cultures were incubated for 48 hours in the presence of varying concentrations of Compound 11 and parasite growth was measured by establishing whole well luciferase activity to calculate EC50 values for each strain.

cytosolic PfcPheRS = details: previously reported; cited from earlier work
[7] = tested on: C. parvum mutant transgenic PheRS (mut482V); assay: microbe, parasite or virus in culture; format: cell-based, Cryptosporidium parvum
Method: as §2, §3

Structure (SMILES): COc1ccc(NC(=O)N2CCCCN3[C@H](CN(C)C)[C@H](c4ccc(C#Cc5ccccc5)cc4)[C@@H]3C2)cc1 [Compound 11, (8R,9S,10S)-10-((dimethylamino)methyl)-N-(4-methoxyphenyl)-9-(4-(phenylethynyl)phenyl)-1,6-diazabicyclo[6.2.0]decane-6-carboxamide]
- EC50 [1]: 8 nM
- EC50 [2]: 23 nM
- potency on asexual growth (0-48 h) vs DMC1 expression (48-72 h) (C. parvum [3]): approximately equipotent
- oocyst shedding at follow-up for relapse (C. parvum [4]; 10 mg/kg every 24 h for 7 days, monitored an additional 14 days): no oocyst shedding was observed
- log reduction in oocysts·mg^−1 stool (C. parvum [4]; oral, 50 mg/kg every 24 h for 4 days): ~3 log
- reduction in oocyst shedding (oocysts per mg feces) (C. parvum [4]; oral, 50 mg/kg every 24 h for 4 days, 50 mg/kg): significant reduction in oocyst shedding; also recorded: greatest reduction in oocysts
- effect on host cell invasion (C. parvum [5]): No effect
- EC50 [6]: 47 nM
- IC50 (cytosolic PfcPheRS): 23 nM
- fold shift in EC50, mutant transgenic vs wild type transgenic [7]: 23 fold
- EC50 ([7]; Cryptosporidium parvum, HCT-8, 48 h, read-out: EC50, mutant transgenic): 1060 nM
